In patent US20210045385A1, “PYRIDAZINONE-SUBSTITUTED KETOXIMES AS HERBICIDES” (FMC Corporation, priority 2018, published 2021):

Key:
Format in all cases: in vivo
[1] = tested on: Italian ryegrass (Lolium mutiflorum); test: Test C preemergence, visual plant response rating
Procedure, shortened: (§1)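 Compounds in a non-phytotoxic solvent with surfactant were applied as a directed soil spray preemergence or to 2–10 cm, one- to two-leaf plants postemergence, in loam–sand soil. After about 10 d in a greenhouse, injury was visually rated against untreated controls on a 0–100 scale (100 = complete control).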

[2] = tested on: barnyardgrass (Echinochloa crus-galli); test: Test C preemergence, visual plant response rating
Procedure, shortened: as §1

[3] = tested on: foxtail, giant (giant foxtail, Setaria faberi); test: Test C preemergence, visual plant response rating
Procedure, shortened: as §1

[4] = tested on: kochia (Bassia scoparia); test: Test C preemergence, visual plant response rating
Procedure, shortened: as §1

[5] = tested on: pigweed (Amaranthus retroflexus); test: Test C preemergence, visual plant response rating
Procedure, shortened: as §1

[6] = tested on: ragweed (common ragweed, Ambrosia artemisiifolia); test: Test C preemergence, visual plant response rating
Procedure, shortened: as §1

[7] = tested on: Italian ryegrass (Lolium mutiflorum); test: Test C postemergence, visual plant response rating
Procedure, shortened: as §1

[8] = tested on: barnyardgrass (Echinochloa crus-galli); test: Test C postemergence, visual plant response rating
Procedure, shortened: as §1

[9] = tested on: blackgrass (Alopecurus myosuroides); test: Test C postemergence, visual plant response rating
Procedure, shortened: as §1

[10] = tested on: corn (Zea mays); test: Test C postemergence, visual plant response rating
Procedure, shortened: as §1

[11] = tested on: foxtail, giant (giant foxtail, Setaria faberi); test: Test C postemergence, visual plant response rating
Procedure, shortened: as §1

[12] = tested on: galium (catchweed bedstraw, Galium aparine); test: Test C postemergence, visual plant response rating
Procedure, shortened: as §1

[13] = tested on: kochia (Bassia scoparia); test: Test C postemergence, visual plant response rating
Procedure, shortened: as §1

[14] = tested on: pigweed (Amaranthus retroflexus); test: Test C postemergence, visual plant response rating
Procedure, shortened: as §1

[15] = tested on: ragweed (common ragweed, Ambrosia artemisiifolia); test: Test C postemergence, visual plant response rating
Procedure, shortened: as §1

[16] = tested on: wheat (Triticum aestivum); test: Test C postemergence, visual plant response rating
Procedure, shortened: as §1

[17] = tested on: barnyardgrass (Echinochloa crus-galli); test: Test D flooded paddy test, visual plant response rating; conditions: 250 g ai/ha, scale 0 to 100 (0 no effect, 100 complete control), 13 to 15 d
Procedure, shortened: (§2)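 Plants were grown to the 2-leaf stage, pots flooded to 3 cm above soil, and compound applied directly into the paddy water, with the depth held throughout. After 13 to 15 d in a greenhouse, response was rated visually against untreated controls on a 0–100 scale (0 no effect, 100 complete control).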

[18] = tested on: duck salad (Heteranthera limosa); test: as above; conditions: 250 g ai/ha, scale 0 to 100 (0 no effect, 100 complete control), 13 to 15 d
Procedure, shortened: as §2

[19] = tested on: rice (Oryza sativa); test: as above; conditions: 250 g ai/ha, scale 0 to 100 (0 no effect, 100 complete control), 13 to 15 d
Procedure, shortened: as §2

[20] = tested on: sedge umbrella (small-flower umbrella sedge, Cyperus difformis); test: as above; conditions: 250 g ai/ha, scale 0 to 100 (0 no effect, 100 complete control), 13 to 15 d
Procedure, shortened: as §2

[21] = Test C, 31 g ai/ha, 0 is no effect, 100 is complete control
[22] = Test C, postemergence, 125 g ai/ha
[23] = Test C, 125 g ai/ha, 0 is no effect, 100 is complete control

Structure (SMILES)	Ryegrass, Italian plant response rating (0 to 100 scale) [1, 21]	Barnyardgrass plant response rating (0 to 100 scale) [2, 21]	Foxtail, Giant plant response rating (0 to 100 scale) [3, 21]	Kochia plant response rating (0 to 100 scale) [4, 21]	Pigweed plant response rating (0 to 100 scale) [5, 21]	Ragweed plant response rating (0 to 100 scale) [6, 21]	Ryegrass, Italian plant response rating (0 to 100 scale) ([7]; Postemergence, 31 g ai/ha)	Ryegrass, Italian plant response rating (0 to 100 scale) [7, 22]	Barnyardgrass plant response rating (0 to 100 scale) ([8]; Postemergence, 31 g ai/ha)	Barnyardgrass plant response rating (0 to 100 scale) [8, 22]	Blackgrass plant response rating (0 to 100 scale) ([9]; Postemergence, 31 g ai/ha)	Blackgrass plant response rating (0 to 100 scale) [9, 22]	Corn plant response rating (0 to 100 scale) ([10]; Postemergence, 31 g ai/ha)	Corn plant response rating (0 to 100 scale) [10, 22]	Foxtail, Giant plant response rating (0 to 100 scale) ([11]; Postemergence, 31 g ai/ha)	Foxtail, Giant plant response rating (0 to 100 scale) [11, 22]	Galium plant response rating (0 to 100 scale) ([12]; Postemergence, 31 g ai/ha)	Galium plant response rating (0 to 100 scale) [12, 22]	Kochia plant response rating (0 to 100 scale) ([13]; Postemergence, 31 g ai/ha)	Kochia plant response rating (0 to 100 scale) [13, 22]	other results
C#CCO/N=C(\c1c(O)c(C)nn(C)c1=O)c1cc(Cl)cc2ccccc12 [Compound 191]	30	30	70	10	80	50	0	80	80	90	80	70	10	60	70	80	70	100	50	80	Ryegrass, Italian plant response rating (0 to 100 scale) ([1]; 125 g ai/ha): 80; Barnyardgrass plant response rating (0 to 100 scale) ([2]; 125 g ai/ha): 90; Foxtail, Giant plant response rating (0 to 100 scale) ([3]; 125 g ai/ha): 90; Kochia plant response rating (0 to 100 scale) ([4]; 125 g ai/ha): 60; Pigweed plant response rating (0 to 100 scale) ([5]; 125 g ai/ha): 100; Ragweed plant response rating (0 to 100 scale) ([6]; 125 g ai/ha): 80; Pigweed plant response rating (0 to 100 scale) ([14]; Postemergence, 31 g ai/ha): 90; Pigweed plant response rating (0 to 100 scale) [14, 22]: 100; Ragweed plant response rating (0 to 100 scale) ([15]; Postemergence, 31 g ai/ha): 70; Ragweed plant response rating (0 to 100 scale) [15, 22]: 80; Wheat plant response rating (0 to 100 scale) ([16]; Postemergence, 31 g ai/ha): 0; Wheat plant response rating (0 to 100 scale) [16, 22]: 70; Plant response rating, Barnyardgrass (Flood) [17]: 70; Plant response rating, Ducksalad (Flood) [18]: 75; Plant response rating, Rice (Flood) [19]: 60; Plant response rating, Sedge, Umbrella (Flood) [20]: 80
C#CCO/N=C(/c1c(O)c(C)nn(C)c1=O)c1cccc2cc(Cl)ccc12 [Compound 242]	10	60	80	30	100	80	40	90	80	90	80	90	0	20	70	80	80	100	40	50	Ryegrass, Italian plant response rating (0 to 100 scale) [1, 23]: 90; Barnyardgrass plant response rating (0 to 100 scale) [2, 23]: 90; Foxtail, Giant plant response rating (0 to 100 scale) [3, 23]: 100; Kochia plant response rating (0 to 100 scale) [4, 23]: 50; Pigweed plant response rating (0 to 100 scale) [5, 23]: 100; Ragweed plant response rating (0 to 100 scale) [6, 23]: 90; Pigweed plant response rating (0 to 100 scale) ([14]; Postemergence, 31 g ai/ha): 90; Pigweed plant response rating (0 to 100 scale) [14, 22]: 100; Ragweed plant response rating (0 to 100 scale) ([15]; Postemergence, 31 g ai/ha): 50; Ragweed plant response rating (0 to 100 scale) [15, 22]: 90; Wheat plant response rating (0 to 100 scale) ([16]; Postemergence, 31 g ai/ha): 0; Wheat plant response rating (0 to 100 scale) [16, 22]: 60; Plant response rating, Barnyardgrass (Flood) [17]: 95; Plant response rating, Ducksalad (Flood) [18]: 98; Plant response rating, Rice (Flood) [19]: 85; Plant response rating, Sedge, Umbrella (Flood) [20]: 100
CC(C)O/N=C(\c1c(O)c(Cl)nn(C)c1=O)c1ccc(F)c2ccccc12 [Compound 210]	0	30	90	0	30	0	0	20	40	70	0	30	20	20	70	90	90	100	30	40	Ryegrass, Italian plant response rating (0 to 100 scale) [1, 23]: 20; Barnyardgrass plant response rating (0 to 100 scale) [2, 23]: 80; Foxtail, Giant plant response rating (0 to 100 scale) [3, 23]: 100; Kochia plant response rating (0 to 100 scale) [4, 23]: 0; Pigweed plant response rating (0 to 100 scale) [5, 23]: 100; Ragweed plant response rating (0 to 100 scale) [6, 23]: 90; Pigweed plant response rating (0 to 100 scale) ([14]; Postemergence, 31 g ai/ha): 40; Pigweed plant response rating (0 to 100 scale) [14, 22]: 100; Ragweed plant response rating (0 to 100 scale) ([15]; Postemergence, 31 g ai/ha): 90; Ragweed plant response rating (0 to 100 scale) [15, 22]: 90; Wheat plant response rating (0 to 100 scale) ([16]; Postemergence, 31 g ai/ha): 0; Wheat plant response rating (0 to 100 scale) [16, 22]: 0; Plant response rating, Barnyardgrass (Flood) [17]: 0; Plant response rating, Ducksalad (Flood) [18]: 45; Plant response rating, Rice (Flood) [19]: 0; Plant response rating, Sedge, Umbrella (Flood) [20]: 90
CCO/N=C(\c1c(O)c(Cl)nn(C)c1=O)c1ccc(F)c2ccccc12 [Compound 212]	0	40	80	0	10	10	10	80	50	70	0	0	0	0	50	80	90	100	50	50	Ryegrass, Italian plant response rating (0 to 100 scale) [1, 23]: 30; Barnyardgrass plant response rating (0 to 100 scale) [2, 23]: 80; Foxtail, Giant plant response rating (0 to 100 scale) [3, 23]: 100; Kochia plant response rating (0 to 100 scale) [4, 23]: 20; Pigweed plant response rating (0 to 100 scale) [5, 23]: 100; Ragweed plant response rating (0 to 100 scale) [6, 23]: 100; Pigweed plant response rating (0 to 100 scale) ([14]; Postemergence, 31 g ai/ha): 50; Pigweed plant response rating (0 to 100 scale) [14, 22]: 90; Ragweed plant response rating (0 to 100 scale) ([15]; Postemergence, 31 g ai/ha): 100; Ragweed plant response rating (0 to 100 scale) [15, 22]: 90; Wheat plant response rating (0 to 100 scale) ([16]; Postemergence, 31 g ai/ha): 0; Wheat plant response rating (0 to 100 scale) [16, 22]: 0; Plant response rating, Barnyardgrass (Flood) [17]: 20; Plant response rating, Ducksalad (Flood) [18]: 60; Plant response rating, Rice (Flood) [19]: 0; Plant response rating, Sedge, Umbrella (Flood) [20]: 65
